Test results: the kinase profiling compilation of Christmann-Franck et al. (2016)
One block for each molecule: values may come before it.

Tests used:
Test in all cases: radiometric filter-binding kinase assay
NEK6 (human) = NEK6 (human) (UniProt Q9HC98)
PIM1 (human) = PIM1 (human) (UniProt P11309)
RPS6KA1 KD1 KD2 (human) = RPS6KA1 KD1 KD2 (human) (UniProt Q15418)
MAPK9 (human) = MAPK9 (human) (UniProt P45984)
STK3 (human) = STK3 (human) (UniProt Q13188)
IKBKE (human) = IKBKE (human) (UniProt Q14164)
MAPK8 (human) = MAPK8 (human) (UniProt P45983)
[1] = tested on: RPS6KB1 (human), P23443 [T412E]
DYRK1A (human) = DYRK1A (human) (UniProt Q13627)
MAPKAPK2 (human) = MAPKAPK2 (human) (UniProt P49137)
Chain of MAPKAPK2 (human) (P49137 whole entry, looked up): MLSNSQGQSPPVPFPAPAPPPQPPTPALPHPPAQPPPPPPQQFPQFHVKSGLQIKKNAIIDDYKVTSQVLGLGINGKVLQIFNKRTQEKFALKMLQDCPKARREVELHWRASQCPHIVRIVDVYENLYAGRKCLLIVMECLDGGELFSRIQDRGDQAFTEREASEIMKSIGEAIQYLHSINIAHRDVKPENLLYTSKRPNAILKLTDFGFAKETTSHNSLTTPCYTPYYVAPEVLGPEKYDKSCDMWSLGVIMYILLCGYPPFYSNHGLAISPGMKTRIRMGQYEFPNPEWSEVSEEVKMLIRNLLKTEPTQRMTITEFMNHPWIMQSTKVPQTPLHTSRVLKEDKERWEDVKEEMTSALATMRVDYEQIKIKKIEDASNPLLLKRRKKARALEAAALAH

MARK3 (human) = MARK3 (human) (UniProt P27448)
CHEK2 (human) = CHEK2 (human) (UniProt O96017)
Chain of CHEK2 (human) (O96017 whole entry, looked up): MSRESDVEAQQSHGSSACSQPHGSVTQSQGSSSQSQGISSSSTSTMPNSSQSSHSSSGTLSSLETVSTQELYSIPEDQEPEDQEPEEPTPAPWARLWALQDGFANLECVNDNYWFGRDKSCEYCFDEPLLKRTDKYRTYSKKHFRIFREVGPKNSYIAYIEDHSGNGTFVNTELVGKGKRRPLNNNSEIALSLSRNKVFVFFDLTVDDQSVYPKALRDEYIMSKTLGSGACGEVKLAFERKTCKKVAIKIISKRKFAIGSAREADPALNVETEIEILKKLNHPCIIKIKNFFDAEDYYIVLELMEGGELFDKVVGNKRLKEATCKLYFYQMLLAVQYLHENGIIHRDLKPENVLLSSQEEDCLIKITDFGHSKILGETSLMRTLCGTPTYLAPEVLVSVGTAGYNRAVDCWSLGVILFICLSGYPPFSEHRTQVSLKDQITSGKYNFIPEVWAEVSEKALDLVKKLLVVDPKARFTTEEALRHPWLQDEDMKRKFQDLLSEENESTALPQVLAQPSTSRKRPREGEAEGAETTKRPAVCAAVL

MKNK2 (human) = MKNK2 (human) (UniProt Q9HBH9)
Chain of MKNK2 (human) (Q9HBH9 whole entry, looked up): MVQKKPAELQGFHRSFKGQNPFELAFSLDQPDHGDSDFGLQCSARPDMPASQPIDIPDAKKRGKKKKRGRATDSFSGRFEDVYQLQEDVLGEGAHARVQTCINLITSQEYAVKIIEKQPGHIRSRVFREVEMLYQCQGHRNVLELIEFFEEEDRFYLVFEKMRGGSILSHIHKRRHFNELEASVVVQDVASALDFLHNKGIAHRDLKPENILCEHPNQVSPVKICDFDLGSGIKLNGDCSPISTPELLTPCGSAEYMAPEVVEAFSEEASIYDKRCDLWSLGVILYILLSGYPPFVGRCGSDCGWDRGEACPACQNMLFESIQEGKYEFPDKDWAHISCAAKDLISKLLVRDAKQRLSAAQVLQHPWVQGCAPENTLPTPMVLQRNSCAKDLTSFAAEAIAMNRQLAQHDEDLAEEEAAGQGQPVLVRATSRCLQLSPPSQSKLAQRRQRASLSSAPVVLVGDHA

MAPK3 (human) = MAPK3 (human) (UniProt P27361)
[2] = tested on: AKT1 (human), P31749 [S473D]
Chain of AKT1 (human), P31749 [S473D] (P31749 whole entry S473D, looked up): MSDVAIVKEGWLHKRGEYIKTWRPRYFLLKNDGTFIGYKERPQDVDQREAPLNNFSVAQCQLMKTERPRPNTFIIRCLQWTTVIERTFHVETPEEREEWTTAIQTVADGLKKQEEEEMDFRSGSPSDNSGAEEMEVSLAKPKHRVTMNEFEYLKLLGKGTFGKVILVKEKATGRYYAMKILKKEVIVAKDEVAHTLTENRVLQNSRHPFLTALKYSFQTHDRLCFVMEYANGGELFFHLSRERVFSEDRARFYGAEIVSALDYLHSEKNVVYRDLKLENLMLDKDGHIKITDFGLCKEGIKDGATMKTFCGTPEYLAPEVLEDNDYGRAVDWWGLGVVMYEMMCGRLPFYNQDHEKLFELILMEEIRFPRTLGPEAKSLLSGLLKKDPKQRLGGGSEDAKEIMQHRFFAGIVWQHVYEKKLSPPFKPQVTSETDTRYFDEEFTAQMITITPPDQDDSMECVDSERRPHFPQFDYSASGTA

PAK4 (human) = PAK4 (human) (UniProt O96013)
MAPK14 (human) = MAPK14 (human) (UniProt Q16539)
MAP2K1 (human) = MAP2K1 (human) (UniProt Q02750)
TBK1 (human) = TBK1 (human) (UniProt Q9UHD2)
NEK2 (human) = NEK2 (human) (UniProt P51955)
Chain of NEK2 (human) (P51955 whole entry, looked up): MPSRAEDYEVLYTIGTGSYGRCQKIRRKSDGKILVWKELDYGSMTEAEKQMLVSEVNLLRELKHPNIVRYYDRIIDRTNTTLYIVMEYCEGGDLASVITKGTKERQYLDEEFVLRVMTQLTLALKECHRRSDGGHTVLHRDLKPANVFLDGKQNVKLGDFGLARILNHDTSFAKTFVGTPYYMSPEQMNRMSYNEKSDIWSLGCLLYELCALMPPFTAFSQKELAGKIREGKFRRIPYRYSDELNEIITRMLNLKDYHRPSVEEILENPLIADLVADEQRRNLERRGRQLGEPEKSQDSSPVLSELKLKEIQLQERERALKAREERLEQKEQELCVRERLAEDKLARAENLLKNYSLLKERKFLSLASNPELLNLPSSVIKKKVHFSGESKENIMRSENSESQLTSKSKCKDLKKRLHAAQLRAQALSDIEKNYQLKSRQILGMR

DYRK3 (human) = DYRK3 (human) (UniProt O43781)
Chain of DYRK3 (human) (O43781 whole entry, looked up): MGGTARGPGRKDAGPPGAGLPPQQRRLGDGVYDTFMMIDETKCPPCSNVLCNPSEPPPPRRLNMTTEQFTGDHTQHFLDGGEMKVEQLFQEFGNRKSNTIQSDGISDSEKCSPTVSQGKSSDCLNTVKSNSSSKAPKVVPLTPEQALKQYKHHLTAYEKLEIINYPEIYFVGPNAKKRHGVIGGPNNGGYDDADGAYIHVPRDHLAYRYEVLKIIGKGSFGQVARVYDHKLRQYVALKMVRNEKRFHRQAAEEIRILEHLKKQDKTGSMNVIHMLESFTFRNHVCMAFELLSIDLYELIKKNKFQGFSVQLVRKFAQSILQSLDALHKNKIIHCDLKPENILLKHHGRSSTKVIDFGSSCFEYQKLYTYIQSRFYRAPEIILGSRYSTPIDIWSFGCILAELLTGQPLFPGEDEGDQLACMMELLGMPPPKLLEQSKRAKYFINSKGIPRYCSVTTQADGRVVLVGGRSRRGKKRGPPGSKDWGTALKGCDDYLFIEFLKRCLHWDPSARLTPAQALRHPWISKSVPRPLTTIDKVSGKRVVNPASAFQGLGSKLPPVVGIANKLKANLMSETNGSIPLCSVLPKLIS

CSNK1D (human) = CSNK1D (human) (UniProt P48730)
CaMK1 (human) = CaMK1 (human) (UniProt Q14012)
Chain of CaMK1 (human) (Q14012 whole entry, looked up): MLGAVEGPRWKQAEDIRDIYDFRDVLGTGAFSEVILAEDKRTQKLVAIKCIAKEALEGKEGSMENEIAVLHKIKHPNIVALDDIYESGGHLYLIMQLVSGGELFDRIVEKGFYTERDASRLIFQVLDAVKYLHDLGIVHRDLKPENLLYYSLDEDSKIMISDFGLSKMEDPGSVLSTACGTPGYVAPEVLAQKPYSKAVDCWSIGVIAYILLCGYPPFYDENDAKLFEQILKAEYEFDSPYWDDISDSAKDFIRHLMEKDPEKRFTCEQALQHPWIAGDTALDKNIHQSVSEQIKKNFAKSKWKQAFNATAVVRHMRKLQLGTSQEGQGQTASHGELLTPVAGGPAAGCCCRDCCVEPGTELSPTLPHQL

MKNK1 (human) = MKNK1 (human) (UniProt Q9BUB5)
Chain of MKNK1 (human) (Q9BUB5 whole entry, looked up): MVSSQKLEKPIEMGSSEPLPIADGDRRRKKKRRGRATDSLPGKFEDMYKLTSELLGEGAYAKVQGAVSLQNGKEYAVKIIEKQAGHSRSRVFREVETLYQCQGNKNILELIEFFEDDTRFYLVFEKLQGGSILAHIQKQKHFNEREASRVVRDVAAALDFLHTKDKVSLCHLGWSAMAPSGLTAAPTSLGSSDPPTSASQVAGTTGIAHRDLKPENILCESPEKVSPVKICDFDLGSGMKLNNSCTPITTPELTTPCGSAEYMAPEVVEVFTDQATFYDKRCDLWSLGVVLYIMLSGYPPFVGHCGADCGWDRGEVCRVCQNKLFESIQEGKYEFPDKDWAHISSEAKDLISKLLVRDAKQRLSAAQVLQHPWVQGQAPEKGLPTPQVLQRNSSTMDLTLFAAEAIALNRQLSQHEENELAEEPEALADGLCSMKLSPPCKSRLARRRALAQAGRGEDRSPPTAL

IKBKB (human) = IKBKB (human) (UniProt O14920)

Chain of RPS6KA1 KD1 KD2 (human) (Q15418 whole entry, looked up): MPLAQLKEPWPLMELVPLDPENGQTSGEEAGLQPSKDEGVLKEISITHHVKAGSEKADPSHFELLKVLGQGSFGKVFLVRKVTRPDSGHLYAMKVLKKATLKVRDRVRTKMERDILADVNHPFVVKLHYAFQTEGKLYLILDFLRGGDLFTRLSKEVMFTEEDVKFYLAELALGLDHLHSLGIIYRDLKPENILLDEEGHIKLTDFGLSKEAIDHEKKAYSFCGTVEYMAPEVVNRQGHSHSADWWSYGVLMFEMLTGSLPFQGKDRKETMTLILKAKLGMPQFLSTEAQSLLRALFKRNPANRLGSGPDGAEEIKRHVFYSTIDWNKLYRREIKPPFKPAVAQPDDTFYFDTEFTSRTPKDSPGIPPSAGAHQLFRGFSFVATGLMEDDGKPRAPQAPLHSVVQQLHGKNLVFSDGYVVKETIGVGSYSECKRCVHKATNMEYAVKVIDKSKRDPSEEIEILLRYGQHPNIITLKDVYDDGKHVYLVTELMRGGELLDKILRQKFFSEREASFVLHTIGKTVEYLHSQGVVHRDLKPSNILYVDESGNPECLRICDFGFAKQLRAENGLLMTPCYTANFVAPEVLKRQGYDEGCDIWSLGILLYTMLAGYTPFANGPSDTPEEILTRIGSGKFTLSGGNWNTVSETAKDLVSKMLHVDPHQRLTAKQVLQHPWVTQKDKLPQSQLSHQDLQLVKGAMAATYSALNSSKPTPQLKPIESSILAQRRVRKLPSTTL
Chain of MAPK9 (human) (P45984 whole entry, looked up): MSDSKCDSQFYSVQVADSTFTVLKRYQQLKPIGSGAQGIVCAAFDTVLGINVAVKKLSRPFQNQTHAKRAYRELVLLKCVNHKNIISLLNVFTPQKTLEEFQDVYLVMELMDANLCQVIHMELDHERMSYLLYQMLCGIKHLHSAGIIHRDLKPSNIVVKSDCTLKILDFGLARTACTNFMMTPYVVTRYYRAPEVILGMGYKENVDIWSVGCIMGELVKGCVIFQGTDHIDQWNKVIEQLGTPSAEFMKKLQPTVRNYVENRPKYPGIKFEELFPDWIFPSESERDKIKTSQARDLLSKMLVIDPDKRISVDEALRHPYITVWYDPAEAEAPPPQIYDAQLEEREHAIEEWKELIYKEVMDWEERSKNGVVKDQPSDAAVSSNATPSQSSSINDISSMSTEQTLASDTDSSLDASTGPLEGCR

residual activity (NEK6 (human); compound 1.0 µM): 101%
residual activity (PIM1 (human); compound 1.0 µM): 79%
residual activity (PIM1 (human); compound 10.0 µM): 83%
residual activity (RPS6KA1 KD1 KD2 (human); compound 1.0 µM): 106%
residual activity (RPS6KA1 KD1 KD2 (human); compound 10.0 µM): 113%
residual activity (MAPK9 (human); compound 10.0 µM): 79%
residual activity (STK3 (human); compound 1.0 µM): 97%
residual activity (STK3 (human); compound 10.0 µM): 122%
residual activity (IKBKE (human); compound 1.0 µM): 92%
residual activity (IKBKE (human); compound 10.0 µM): 92%
residual activity (MAPK8 (human); compound 1.0 µM): 83%
residual activity (MAPK8 (human); compound 10.0 µM): 74%
residual activity ([1]; compound 1.0 µM): 98%
residual activity ([1]; compound 10.0 µM): 105%
residual activity (DYRK1A (human); compound 1.0 µM): 87%
residual activity (DYRK1A (human); compound 10.0 µM): 59%
residual activity (MAPKAPK2 (human); compound 1.0 µM): 97%
residual activity (MAPKAPK2 (human); compound 10.0 µM): 84%
residual activity (MARK3 (human); compound 1.0 µM): 93%
residual activity (MARK3 (human); compound 10.0 µM): 91%
residual activity (CHEK2 (human); compound 1.0 µM): 81%
residual activity (CHEK2 (human); compound 10.0 µM): 101%
residual activity (MKNK2 (human); compound 1.0 µM): 99%
residual activity (MKNK2 (human); compound 10.0 µM): 83%
residual activity (MAPK3 (human); compound 1.0 µM): 115%
residual activity ([2]; compound 1.0 µM): 107%
residual activity ([2]; compound 10.0 µM): 105%
residual activity (PAK4 (human); compound 1.0 µM): 87%
residual activity (PAK4 (human); compound 10.0 µM): 66%
residual activity (MAPK14 (human); compound 1.0 µM): 82%
residual activity (MAPK14 (human); compound 10.0 µM): 98%
residual activity (MAP2K1 (human); compound 1.0 µM): 105%
residual activity (MAP2K1 (human); compound 10.0 µM): 90%
residual activity (TBK1 (human); compound 1.0 µM): 102%
residual activity (TBK1 (human); compound 10.0 µM): 88%
residual activity (NEK2 (human); compound 1.0 µM): 94%
residual activity (NEK2 (human); compound 10.0 µM): 153%
residual activity (DYRK3 (human); compound 1.0 µM): 83%
residual activity (DYRK3 (human); compound 10.0 µM): 81%
residual activity (CSNK1D (human); compound 1.0 µM): 82%
residual activity (CSNK1D (human); compound 10.0 µM): 80%
residual activity (CaMK1 (human); compound 1.0 µM): 95%
residual activity (CaMK1 (human); compound 10.0 µM): 62%
residual activity (MKNK1 (human); compound 1.0 µM): 89%
residual activity (MKNK1 (human); compound 10.0 µM): 79%
Compound: Cc1cc(SCc2sc(-c3ccc(C(F)(F)F)cc3)nc2C)ccc1OCC(=O)O

residual activity (NEK6 (human); compound 1.0 µM): 73%
residual activity (NEK6 (human); compound 10.0 µM): 81%
residual activity (PIM1 (human); compound 1.0 µM): 127%
residual activity (PIM1 (human); compound 10.0 µM): 115%
residual activity (RPS6KA1 KD1 KD2 (human); compound 1.0 µM): 108%
residual activity (RPS6KA1 KD1 KD2 (human); compound 10.0 µM): 101%
residual activity (IKBKB (human); compound 1.0 µM): 101%
residual activity (IKBKB (human); compound 10.0 µM): 101%
residual activity (MAPK9 (human); compound 1.0 µM): 104%
residual activity (MAPK9 (human); compound 10.0 µM): 117%
residual activity (STK3 (human); compound 1.0 µM): 90%
residual activity (STK3 (human); compound 10.0 µM): 102%
residual activity (MAPK8 (human); compound 1.0 µM): 99%
residual activity (MAPK8 (human); compound 10.0 µM): 97%
residual activity ([1]; compound 1.0 µM): 127%
residual activity ([1]; compound 10.0 µM): 137%
residual activity (DYRK1A (human); compound 1.0 µM): 90%
residual activity (DYRK1A (human); compound 10.0 µM): 101%
residual activity (MAPKAPK2 (human); compound 1.0 µM): 101%
residual activity (MAPKAPK2 (human); compound 10.0 µM): 104%
residual activity (MARK3 (human); compound 1.0 µM): 89%
residual activity (MARK3 (human); compound 10.0 µM): 94%
residual activity (CHEK2 (human); compound 1.0 µM): 84%
residual activity (CHEK2 (human); compound 10.0 µM): 98%
residual activity (MKNK2 (human); compound 1.0 µM): 103%
residual activity (MKNK2 (human); compound 10.0 µM): 76%
residual activity (MAPK3 (human); compound 1.0 µM): 114%
residual activity (MAPK3 (human); compound 10.0 µM): 108%
residual activity ([2]; compound 1.0 µM): 100%
residual activity ([2]; compound 10.0 µM): 114%
residual activity (PAK4 (human); compound 1.0 µM): 86%
residual activity (PAK4 (human); compound 10.0 µM): 95%
residual activity (MAPK14 (human); compound 1.0 µM): 118%
residual activity (MAPK14 (human); compound 10.0 µM): 122%
residual activity (MAP2K1 (human); compound 1.0 µM): 187%
residual activity (MAP2K1 (human); compound 10.0 µM): 191%
residual activity (NEK2 (human); compound 1.0 µM): 107%
residual activity (NEK2 (human); compound 10.0 µM): 115%
residual activity (DYRK3 (human); compound 1.0 µM): 136%
residual activity (DYRK3 (human); compound 10.0 µM): 137%
residual activity (CSNK1D (human); compound 1.0 µM): 77%
residual activity (CSNK1D (human); compound 10.0 µM): 87%
residual activity (CaMK1 (human); compound 1.0 µM): 92%
residual activity (CaMK1 (human); compound 10.0 µM): 89%
residual activity (MKNK1 (human); compound 1.0 µM): 92%
residual activity (MKNK1 (human); compound 10.0 µM): 96%
Compound: Cc1cccc(Nc2nn(C)c3ncnc(N)c23)c1

residual activity (NEK6 (human); compound 1.0 µM): 98%
residual activity (NEK6 (human); compound 10.0 µM): 93%
residual activity (PIM1 (human); compound 1.0 µM): 76%
residual activity (PIM1 (human); compound 10.0 µM): 15%
residual activity (RPS6KA1 KD1 KD2 (human); compound 1.0 µM): 83%
residual activity (RPS6KA1 KD1 KD2 (human); compound 10.0 µM): 46%
residual activity (MAPK9 (human); compound 1.0 µM): 90%
residual activity (MAPK9 (human); compound 10.0 µM): 93%
residual activity (STK3 (human); compound 1.0 µM): 84%
residual activity (STK3 (human); compound 10.0 µM): 67%
residual activity (IKBKE (human); compound 1.0 µM): 83%
residual activity (IKBKE (human); compound 10.0 µM): 74%
residual activity (MAPK8 (human); compound 1.0 µM): 76%
residual activity (MAPK8 (human); compound 10.0 µM): 61%
residual activity ([1]; compound 1.0 µM): 102%
residual activity ([1]; compound 10.0 µM): 68%
residual activity (DYRK1A (human); compound 1.0 µM): 99%
residual activity (DYRK1A (human); compound 10.0 µM): 82%
residual activity (MARK3 (human); compound 1.0 µM): 100%
residual activity (MARK3 (human); compound 10.0 µM): 94%
residual activity (CHEK2 (human); compound 1.0 µM): 77%
residual activity (CHEK2 (human); compound 10.0 µM): 46%
residual activity (MKNK2 (human); compound 1.0 µM): 98%
residual activity (MKNK2 (human); compound 10.0 µM): 87%
residual activity (MAPK3 (human); compound 10.0 µM): 86%
residual activity ([2]; compound 1.0 µM): 87%
residual activity ([2]; compound 10.0 µM): 55%
residual activity (PAK4 (human); compound 1.0 µM): 89%
residual activity (PAK4 (human); compound 10.0 µM): 54%
residual activity (MAPK14 (human); compound 1.0 µM): 91%
residual activity (MAPK14 (human); compound 10.0 µM): 78%
residual activity (MAP2K1 (human); compound 1.0 µM): 79%
residual activity (MAP2K1 (human); compound 10.0 µM): 62%
residual activity (TBK1 (human); compound 1.0 µM): 91%
residual activity (TBK1 (human); compound 10.0 µM): 84%
residual activity (NEK2 (human); compound 1.0 µM): 83%
residual activity (NEK2 (human); compound 10.0 µM): 81%
residual activity (DYRK3 (human); compound 1.0 µM): 71%
residual activity (DYRK3 (human); compound 10.0 µM): 24%
residual activity (CSNK1D (human); compound 1.0 µM): 81%
residual activity (CSNK1D (human); compound 10.0 µM): 43%
residual activity (CaMK1 (human); compound 1.0 µM): 54%
residual activity (CaMK1 (human); compound 10.0 µM): 13%
residual activity (MKNK1 (human); compound 1.0 µM): 97%
residual activity (MKNK1 (human); compound 10.0 µM): 74%
Compound: O=C1Nc2nc(-c3c(O)cccc3OCC3CC3)cc(C3CCCNC3)c2CO1 (stereo unspecified)
